Laboratory results: DBAASP
≈ marks a conversion by molar mass, not a printed value. One block for each compound: values may come before it.

Tests used:
Assay in all cases: ≥ marks a high value that may be exact or a test limit, other limits are often not marked, values filed in µg/mL are converted to µM
[1] = test system: Pseudomonas aeruginosa Ps4
[2] = test system: Klebsiella aerogenes MTCC 111
[3] = test system: Shigella flexneri MTCC 1457
[4] = test system: Alkalihalobacillus alcalophilus MTCC 860
[5] = test system: Salmonella enterica MTCC 9844
[6] = test system: Pseudomonas aeruginosa MTCC 3542
[7] = test system: Klebsiella pneumoniae MTCC 7407
[8] = test system: Enterococcus faecalis MTCC 439
[9] = test system: Citrobacter koseri MTCC 1657
[10] = test system: Bordetella bronchiseptica MTCC 6837
[11] = test system: Corynebacterium glutamicum MTCC 2679
[12] = test system: Acinetobacter baumannii MTCC 9829
[13] = test system: Escherichia coli K12 MG1655
[14] = test system: Proteus vulgaris MTCC 1771
[15] = test system: Klebsiella oxytoca MTCC 2275
[16] = test system: Staphylococcus haemolyticus MTCC 3383
[17] = test system: Salmonella enterica subsp. enterica serovar Typhimurium ATCC 14028
[18] = test system: Alcaligenes faecalis MTCC 1937
[19] = test system: Stenotrophomonas maltophilia MTCC 1890
[20] = test system: Proteus mirabilis MTCC 3158
[21] = test system: Shigella boydii MTCC 11947
[22] = test system: Staphylococcus aureus MTCC 3160
[23] = test system: Vibrio cholerae MTCC 3904
[24] = test system: Haemophilus influenzae MTCC 621
[25] = test system: Pluralibacter gergoviae MTCC 3826
[26] = test system: Citrobacter freundii MTCC 1658
[27] = test system: Escherichia coli MG1655
[28] = test system: Staphylococcus aureus ATCC 25923
[29] = test system: Candida albicans
[30] = test system: Pseudomonas aeruginosa PAO1
[31] = test system: Escherichia coli ATCC 25922

SMILES: CC[C@H](C)[C@H](NC(=O)[C@@H](N)CCC(=O)O)C(=O)N[C@@H](CC(C)C)C(=O)N[C@@H](CO)C(=O)N[C@@H](CCCCN)C(=O)N[C@@H](C)C(=O)N[C@@H](CC(C)C)C(=O)N[C@@H](CO)C(=O)N[C@@H](C)C(=O)N[C@@H](CC(C)C)C(=O)N[C@@H](CO)C(=O)N1CCC[C@H]1C(=O)N[C@@H](CC(C)C)C(=O)N[C@@H](C)C(=O)N[C@@H](CC(N)=O)C(=O)O [EILSKALSALSPLAN]
MIC [2]: ≥ 83.8 µM | MIC [3]: ≥ 83.8 µM | MIC [4]: ≥ 83.8 µM | MIC [5]: ≥ 83.8 µM | MIC [6]: ≥ 83.8 µM | MIC [7]: ≥ 83.8 µM | MIC [8]: ≥ 83.8 µM | MIC [9]: ≥ 83.8 µM | MIC [10]: ≥ 83.8 µM | MIC [11]: ≥ 83.8 µM | MIC [12]: ≥ 83.8 µM | MIC [13]: ≥ 83.8 µM | MIC [14]: ≥ 83.8 µM | MIC [15]: ≥ 83.8 µM | MIC [16]: ≥ 83.8 µM | MIC [17]: > 83.8 µM | MIC [18]: ≥ 83.8 µM | MIC [19]: ≥ 83.8 µM | MIC [20]: ≥ 83.8 µM | MIC [21]: ≥ 83.8 µM | MIC [22]: ≥ 83.8 µM | MIC [23]: ≥ 83.8 µM | MIC [24]: ≥ 83.8 µM | MIC [25]: ≥ 83.8 µM | MIC [26]: ≥ 83.8 µM

SMILES: CC[C@H](C)[C@H](NC(=O)CNC(=O)[C@H](CCCCN)NC(=O)[C@H](C)NC(=O)[C@H](C)NC(=O)[C@H](CCCCN)NC(=O)[C@H](Cc1cnc[nH]1)NC(=O)[C@@H](NC(=O)[C@H](C)NC(=O)[C@H](CCCCN)NC(=O)[C@H](Cc1c[nH]c2ccccc12)NC(=O)CN)[C@@H](C)CC)C(=O)N[C@@H](Cc1cnc[nH]1)C(=O)N[C@H](C(=O)N[C@@H](Cc1ccc(O)cc1)C(=O)N[C@H](C(=O)N[C@@H](CC(N)=O)C(=O)O)C(C)C)[C@@H](C)O [GWKAIHKAAKGIHTYVN]
MIC [2]: ≥ 67.6 µM | MIC [3]: ≥ 67.6 µM | MIC [4]: ≥ 67.6 µM | MIC [5]: ≥ 67.6 µM | MIC [6]: ≥ 67.6 µM | MIC [7]: ≥ 67.6 µM | MIC [8]: ≥ 67.6 µM | MIC [9]: ≥ 67.6 µM | MIC [10]: ≥ 67.6 µM | MIC [11]: ≥ 33.8 µM | MIC [12]: ≥ 67.6 µM | MIC [13]: ≥ 67.6 µM | MIC [14]: ≥ 67.6 µM | MIC [15]: ≥ 67.6 µM | MIC [16]: ≥ 67.6 µM | MIC [17]: > 67.6 µM | MIC [18]: ≥ 67.6 µM | MIC [19]: ≥ 67.6 µM | MIC [20]: ≥ 67.6 µM | MIC [21]: ≥ 67.6 µM | MIC [22]: ≥ 67.6 µM | MIC [23]: ≥ 67.6 µM | MIC [24]: ≥ 33.8 µM | MIC [25]: ≥ 67.6 µM | MIC [26]: ≥ 67.6 µM

SMILES: CC[C@H](C)[C@H](NC(=O)[C@H](CCCCN)NC(=O)[C@H](CCCN=C(N)N)NC(=O)[C@H](CCC(N)=O)NC(=O)[C@H](Cc1c[nH]c2ccccc12)NC(=O)[C@@H](N)Cc1ccccc1)C(=O)N[C@@H](CCCN=C(N)N)C(=O)N[C@@H](CCCCN)C(=O)N[C@H](C(=O)N[C@@H](CCCCN)C(=O)N[C@@H](CCCCN)C(N)=O)C(C)C [FWQRKIRKVKK]
MIC [1]: ≥ 165 µM

SMILES: CSCC[C@H](NC(=O)[C@H](CCCCN)NC(=O)[C@H](CCCCN)NC(=O)[C@H](CC(C)C)NC(=O)[C@H](C)N)C(=O)N[C@@H](CC(C)C)C(=O)N[C@@H](CCCN=C(N)N)C(=O)N[C@@H](CC(C)C)C(=O)N[C@@H](C)C(=O)N[C@@H](CCCCN)C(=O)N[C@@H](CCCN=C(N)N)C(=O)N[C@@H](CC(C)C)C(=O)N[C@@H](CO)C(=O)O [ALKKMLRLAKRLS]
MIC [2]: ≥ 83.8 µM | MIC [3]: 20.9 µM (≈ 32 µg/mL) | MIC [4]: ≥ 83.8 µM | MIC [5]: 20.9 µM (≈ 32 µg/mL) | MIC [6]: ≥ 83.8 µM | MIC [7]: ≥ 83.8 µM | MIC [8]: ≥ 83.8 µM | MIC [9]: ≥ 41.9 µM | MIC [10]: 5.24 µM (≈ 8 µg/mL) | MIC [11]: 10.5 µM (≈ 16 µg/mL) | MIC [12]: ≥ 83.8 µM | MIC [13]: ≥ 41.9 µM | MIC [14]: ≥ 83.8 µM | MIC [15]: ≥ 83.8 µM | MIC [16]: ≥ 83.8 µM | MIC [17]: > 83.8 µM | MIC [18]: ≥ 83.8 µM | MIC [19]: ≥ 83.8 µM | MIC [20]: ≥ 83.8 µM | MIC [21]: ≥ 41.9 µM | MIC [22]: ≥ 83.8 µM | MIC [23]: ≥ 83.8 µM | MIC [24]: ≥ 41.9 µM | MIC [25]: ≥ 83.8 µM | MIC [26]: ≥ 83.8 µM

SMILES: CC[C@H](C)[C@H](NC(=O)[C@H](CCCN=C(N)N)NC(=O)[C@@H](NC(=O)[C@H](CC(N)=O)NC(=O)[C@H](CCCN=C(N)N)NC(=O)[C@H](CCC(N)=O)NC(=O)[C@H](Cc1c[nH]c2ccccc12)NC(=O)[C@@H](N)Cc1ccccc1)[C@@H](C)CC)C(=O)N[C@@H](CCCN=C(N)N)C(=O)N[C@@H](CCCN=C(N)N)C(N)=O [FWQRNIRIRR]
MIC [31]: 86.5 µM (≈ 125 µg/mL) | MIC [1]: ≥ 173 µM

SMILES: CC[C@H](C)[C@H](NC(=O)[C@@H](NC(=O)[C@H](C)NC(=O)[C@H](Cc1cnc[nH]1)NC(=O)[C@H](CC(C)C)NC(=O)[C@H](CCCN=C(N)N)NC(=O)[C@H](C)NC(=O)[C@H](Cc1ccc(O)cc1)NC(=O)[C@@H](NC(=O)[C@@H](N)CCCCN)C(C)C)C(C)C)C(=O)N[C@@H](CCCCN)C(=O)N[C@@H](CCCN=C(N)N)C(=O)N[C@@H](CC(C)C)C(=O)N[C@@H](Cc1cnc[nH]1)C(=O)N[C@@H](CCCN=C(N)N)C(=O)N[C@@H](CCCN=C(N)N)C(=O)N[C@@H](CC(C)C)C(=O)N[C@@H](Cc1cnc[nH]1)C(=O)O [KVYARLHAVIKRLHRRLH]
MIC [2]: ≥ 56.5 µM | MIC [3]: 1.76 µM (≈ 4 µg/mL) | MIC [4]: 14.1 µM (≈ 32 µg/mL) | MIC [5]: 14.1 µM (≈ 32 µg/mL) | MIC [6]: ≥ 56.5 µM | MIC [7]: ≥ 56.5 µM | MIC [8]: ≥ 56.5 µM | MIC [9]: 14.1 µM (≈ 32 µg/mL) | MIC [10]: 1.76 µM (≈ 4 µg/mL) | MIC [11]: 0.882 µM (≈ 2 µg/mL) | MIC [12]: 14.1 µM (≈ 32 µg/mL) | MIC [13]: 7.06 µM (≈ 16 µg/mL) | MIC [14]: ≥ 56.5 µM | MIC [15]: 3.53 µM (≈ 8 µg/mL) | MIC [16]: 1.76 µM (≈ 4 µg/mL) | MIC [17]: 14.1 µM (≈ 32 µg/mL) | MIC [18]: ≥ 56.5 µM | MIC [19]: ≥ 56.5 µM | MIC [20]: ≥ 56.5 µM | MIC [21]: 3.53 µM (≈ 8 µg/mL) | MIC [22]: ≥ 56.5 µM | MIC [23]: ≥ 56.5 µM | MIC [24]: 1.76 µM (≈ 4 µg/mL) | MIC [25]: ≥ 56.5 µM | MIC [26]: 14.1 µM (≈ 32 µg/mL)

The next lines start with the values.

MIC [1]: ≥ 162 µM
SMILES: CC[C@H](C)[C@H](NC(=O)[C@H](CC(N)=O)NC(=O)[C@H](CCCN=C(N)N)NC(=O)[C@H](CCC(N)=O)NC(=O)[C@H](Cc1c[nH]c2ccccc12)NC(=O)[C@@H](N)CCCCN)C(=O)N[C@@H](CCCN=C(N)N)C(=O)N[C@@H](CCCCN)C(=O)N[C@H](C(=O)N[C@@H](CCCN=C(N)N)C(=O)N[C@@H](CCCN=C(N)N)C(N)=O)C(C)C [KWQRNIRKVRR]

MIC [1]: ≥ 180 µM
SMILES: CC[C@H](C)[C@H](NC(=O)[C@@H]1CCCN1C(=O)[C@H](CCCN=C(N)N)NC(=O)[C@H](CCC(N)=O)NC(=O)[C@H](Cc1c[nH]c2ccccc12)NC(=O)[C@@H](N)Cc1ccccc1)C(=O)N[C@@H](CCCN=C(N)N)C(=O)N[C@@H](CCCCN)C(=O)N[C@H](C(=O)N[C@@H](CCCN=C(N)N)C(N)=O)C(C)C [FWQRPIRKVR]

MIC [27]: 2.83 µM (≈ 5.96 µg/mL) | MIC [28]: 5.66 µM (≈ 11.9 µg/mL) | MIC [29]: 22.6 µM (≈ 47.7 µg/mL) | MIC [30]: 8 µM (≈ 16.9 µg/mL)
SMILES: CSCC[C@H](NC(=O)[C@@H](NC(=O)[C@H](CCCCN)NC(=O)[C@H](C)NC(=O)[C@H](CC(C)C)NC(=O)CN)C(C)C)C(=O)N[C@@H](CCCN=C(N)N)C(=O)N[C@@H](CCCCN)C(=O)N[C@H](C(=O)N[C@@H](CC(C)C)C(=O)NCC(=O)N[C@@H](Cc1ccc(O)cc1)C(=O)N[C@@H](CC(C)C)C(=O)N[C@@H](CCCN=C(N)N)C(=O)N[C@@H](CC(N)=O)C(=O)N[C@H](C(=O)N[C@@H](Cc1ccc(O)cc1)C(=O)N[C@@H](CCCCN)C(N)=O)C(C)C)C(C)C [GLAKVMRKVLGYLRNVYK]
